# Source: patent US12661345B2, “Compositions for the treatment of hypertension” (The George Institute for Global Health, priority 2017, dated 2026)
# Tested on: participants with migraine
# Experiment: Office blood pressure in 12-week double blind randomized 3×3 factorial trial
# Type: in vivo, human
# Settings: for Diastolic Blood Pressure Mean difference / Systolic Blood Pressure Mean difference / Diastolic Blood Pressure, Change from Baseline, Mean difference / Systolic Blood Pressure, Change from Baseline, Mean difference: interval in brackets
# Description: There was a 4 week screening period and another 4-week post study drug observational period.
# There was a 4-week screening period and another 4-week post study drug observational period.
# Group 2 received the low-dose BP lowering combination and simvastatin (i.e., telmisartan 20 mg+amlodipine 2.5 mg+simvastatin). Group 3 received the low-dose BP lowering combination and placebo (i.e., telmisartan 20 mg+amlodipine 2.5 mg+placebo). […] Group 9 received double placebo.
# Office BP was measured following the recommendations of the Australian National Heart Foundation. Participants were rested in the seated position for 5 minutes, an appropriate cuff size was selected and 3 measurements of BP were recorded using an Omron HEM907 monitor or equivalent validated automated digital BP monitor. Principles of automated office BP measurements were applied whereby the patient was left alone during BP recording.
# All analyses of study outcomes were conducted according to the principle of intention-to-treat. The analyses of continuous outcomes such SBP and LDL-cholesterol at 12 weeks was performed using ANCOVA including the treatment arm and baseline values as a covariate. Additional analyses included interim measurements in a longitudinal model including treatment arm, visit, and treatment by visit interaction as well as the baseline measurement. Within-patient correlations were modelled using generalized estimating equations. A similar approach was applied to binary endpoints with log-binomial regression used in place of linear regression. There were also pre-defined subgroup analyses, baseline BP, baseline LDL, gender and age.
# [1] = Randomization (baseline, before treatment)
# [2] = Randomization, BP arm versus placebo
smiles,measurement,setting,value
"CC(C)NCC(O)COc1cccc2ccccc12 (centres unmarked) [Propranolol, propranolol]",Diastolic Blood Pressure Mean (SD),[1],10 85.1 (12.48) mmHg
same,Diastolic Blood Pressure Q1,[1],75.7 mmHg
same,Diastolic Blood Pressure Q2,[1],77.7 mmHg
same,Diastolic Blood Pressure Q3,[1],95.7 mmHg
same,Diastolic Blood Pressure min,[1],73 mmHg
same,Systolic Blood Pressure Mean (SD),[1],10 130.4 (16.09) mmHg
same,Systolic Blood Pressure Q1,[1],116.7 mmHg
same,Systolic Blood Pressure Q2,[1],129.3 mmHg
same,Systolic Blood Pressure Q3,[1],146.3 mmHg
same,Systolic Blood Pressure max,[1],153 mmHg
same,Diastolic Blood Pressure Mean difference,[2],"3.67 (−4.68, 12.02) mmHg"
same,Systolic Blood Pressure Mean difference,[2],"6.52 (−4.86, 17.91) mmHg"
same,Diastolic Blood Pressure Mean (SD),Week 4,10 75.5 (9.75) mmHg
same,Diastolic Blood Pressure Q1,Week 4,69.0 mmHg
same,Diastolic Blood Pressure Q2,Week 4,73.3 mmHg
same,Diastolic Blood Pressure Q3,Week 4,83.3 mmHg
same,Diastolic Blood Pressure max,Week 4,89 mmHg
same,Diastolic Blood Pressure min,Week 4,62 mmHg
same,"Diastolic Blood Pressure, Change from Baseline, Mean (SD)",Week 4,10 −9.6 (5.66)
same,"Diastolic Blood Pressure, Change from Baseline, Q1",Week 4,−13.0
same,"Diastolic Blood Pressure, Change from Baseline, Q2",Week 4,−10.3
same,"Diastolic Blood Pressure, Change from Baseline, Q3",Week 4,−4.3
same,"Diastolic Blood Pressure, Change from Baseline, max",Week 4,−1
same,"Diastolic Blood Pressure, Change from Baseline, min",Week 4,−19
same,Systolic Blood Pressure Mean (SD),Week 4,10 121.3 (14.92) mmHg
same,Systolic Blood Pressure Q1,Week 4,108.7 mmHg
same,Systolic Blood Pressure Q2,Week 4,116.8 mmHg
same,Systolic Blood Pressure Q3,Week 4,135.3 mmHg
same,Systolic Blood Pressure max,Week 4,146 mmHg
same,"Systolic Blood Pressure, Change from Baseline, Mean (SD)",Week 4,10 −9.1 (5.63)
same,"Systolic Blood Pressure, Change from Baseline, Q1",Week 4,−13.3
same,"Systolic Blood Pressure, Change from Baseline, Q2",Week 4,−8.5
same,"Systolic Blood Pressure, Change from Baseline, Q3",Week 4,−5.0
same,"Systolic Blood Pressure, Change from Baseline, max",Week 4,−1
same,"Systolic Blood Pressure, Change from Baseline, min",Week 4,−18
same,Diastolic Blood Pressure Mean difference,"Week 4, BP arm versus placebo","−3.53 (−11.29, 4.22) mmHg"
same,Systolic Blood Pressure Mean difference,"Week 4, BP arm versus placebo","−2.60 (−14.65, 9.45) mmHg"
same,"Diastolic Blood Pressure, Change from Baseline, Mean difference",Week 4,"−7.53 (−13.19, −1.88)"
same,"Systolic Blood Pressure, Change from Baseline, Mean difference",Week 4,"−9.23 (−17.31, −1.16)"
same,Diastolic Blood Pressure Mean (SD),Week 8,10 75.0 (8.82) mmHg
same,Diastolic Blood Pressure Q1,Week 8,66.3 mmHg
same,Diastolic Blood Pressure Q2,Week 8,76.5 mmHg
same,Diastolic Blood Pressure Q3,Week 8,83.3 mmHg
same,Diastolic Blood Pressure max,Week 8,85 mmHg
same,Diastolic Blood Pressure min,Week 8,61 mmHg
same,"Diastolic Blood Pressure, Change from Baseline, Mean (SD)",Week 8,10 −10.1 (6.39)
same,"Diastolic Blood Pressure, Change from Baseline, Q1",Week 8,−12.7
same,"Diastolic Blood Pressure, Change from Baseline, Q2",Week 8,−10.8
same,"Diastolic Blood Pressure, Change from Baseline, Q3",Week 8,−7.0
same,"Diastolic Blood Pressure, Change from Baseline, max",Week 8,0
same,"Diastolic Blood Pressure, Change from Baseline, min",Week 8,−22
same,Systolic Blood Pressure Mean (SD),Week 8,10 118.6 (12.56) mmHg
same,Systolic Blood Pressure Q1,Week 8,112.3 mmHg
same,Systolic Blood Pressure Q2,Week 8,119.5 mmHg
same,Systolic Blood Pressure Q3,Week 8,127.0 mmHg
same,Systolic Blood Pressure max,Week 8,135 mmHg
same,Systolic Blood Pressure min,Week 8,95 mmHg
same,"Systolic Blood Pressure, Change from Baseline, Mean (SD)",Week 8,10 −11.8 (11.44)
same,"Systolic Blood Pressure, Change from Baseline, Q1",Week 8,−18.0
same,"Systolic Blood Pressure, Change from Baseline, Q2",Week 8,−11.8
same,"Systolic Blood Pressure, Change from Baseline, Q3",Week 8,−4.3
same,"Systolic Blood Pressure, Change from Baseline, max",Week 8,6
same,"Systolic Blood Pressure, Change from Baseline, min",Week 8,−30
same,Diastolic Blood Pressure Mean difference,"Week 8, BP arm versus placebo","−3.67 (−10.23, 2.90) mmHg"
same,"Diastolic Blood Pressure, Change from Baseline, Mean difference",Week 8,"−7.67 (−12.92, −2.41)"
same,"Systolic Blood Pressure, Change from Baseline, Mean difference",Week 8,"−7.30 (−17.13, 2.53)"
same,"Diastolic Blood Pressure, Change from Baseline, Mean (SD)",Week 12,10 −10.5 (6.44)
same,"Diastolic Blood Pressure, Change from Baseline, Q1",Week 12,−16.7
same,"Diastolic Blood Pressure, Change from Baseline, Q2",Week 12,−9.3
same,"Diastolic Blood Pressure, Change from Baseline, Q3",Week 12,−4.3
same,"Diastolic Blood Pressure, Change from Baseline, max",Week 12,−3
